Measurements as given in ChEMBL document CHEMBL2074107, “Zoledronic acid is synergic with vinblastine to induce apoptosis in a multidrug resistance protein-1 dependent way: an in vitro study” (Cell Biol Int, 2006).

Molecular target: Multidrug resistance-associated protein 1 (Homo sapiens, UniProt P33527)
Test: TP_TRANSPORTER: inhibition of apoptosis in hMRP1-expressing HEK293 cells
Format: functional, cell-based

Sequence of Multidrug resistance-associated protein 1 (P33527 whole entry): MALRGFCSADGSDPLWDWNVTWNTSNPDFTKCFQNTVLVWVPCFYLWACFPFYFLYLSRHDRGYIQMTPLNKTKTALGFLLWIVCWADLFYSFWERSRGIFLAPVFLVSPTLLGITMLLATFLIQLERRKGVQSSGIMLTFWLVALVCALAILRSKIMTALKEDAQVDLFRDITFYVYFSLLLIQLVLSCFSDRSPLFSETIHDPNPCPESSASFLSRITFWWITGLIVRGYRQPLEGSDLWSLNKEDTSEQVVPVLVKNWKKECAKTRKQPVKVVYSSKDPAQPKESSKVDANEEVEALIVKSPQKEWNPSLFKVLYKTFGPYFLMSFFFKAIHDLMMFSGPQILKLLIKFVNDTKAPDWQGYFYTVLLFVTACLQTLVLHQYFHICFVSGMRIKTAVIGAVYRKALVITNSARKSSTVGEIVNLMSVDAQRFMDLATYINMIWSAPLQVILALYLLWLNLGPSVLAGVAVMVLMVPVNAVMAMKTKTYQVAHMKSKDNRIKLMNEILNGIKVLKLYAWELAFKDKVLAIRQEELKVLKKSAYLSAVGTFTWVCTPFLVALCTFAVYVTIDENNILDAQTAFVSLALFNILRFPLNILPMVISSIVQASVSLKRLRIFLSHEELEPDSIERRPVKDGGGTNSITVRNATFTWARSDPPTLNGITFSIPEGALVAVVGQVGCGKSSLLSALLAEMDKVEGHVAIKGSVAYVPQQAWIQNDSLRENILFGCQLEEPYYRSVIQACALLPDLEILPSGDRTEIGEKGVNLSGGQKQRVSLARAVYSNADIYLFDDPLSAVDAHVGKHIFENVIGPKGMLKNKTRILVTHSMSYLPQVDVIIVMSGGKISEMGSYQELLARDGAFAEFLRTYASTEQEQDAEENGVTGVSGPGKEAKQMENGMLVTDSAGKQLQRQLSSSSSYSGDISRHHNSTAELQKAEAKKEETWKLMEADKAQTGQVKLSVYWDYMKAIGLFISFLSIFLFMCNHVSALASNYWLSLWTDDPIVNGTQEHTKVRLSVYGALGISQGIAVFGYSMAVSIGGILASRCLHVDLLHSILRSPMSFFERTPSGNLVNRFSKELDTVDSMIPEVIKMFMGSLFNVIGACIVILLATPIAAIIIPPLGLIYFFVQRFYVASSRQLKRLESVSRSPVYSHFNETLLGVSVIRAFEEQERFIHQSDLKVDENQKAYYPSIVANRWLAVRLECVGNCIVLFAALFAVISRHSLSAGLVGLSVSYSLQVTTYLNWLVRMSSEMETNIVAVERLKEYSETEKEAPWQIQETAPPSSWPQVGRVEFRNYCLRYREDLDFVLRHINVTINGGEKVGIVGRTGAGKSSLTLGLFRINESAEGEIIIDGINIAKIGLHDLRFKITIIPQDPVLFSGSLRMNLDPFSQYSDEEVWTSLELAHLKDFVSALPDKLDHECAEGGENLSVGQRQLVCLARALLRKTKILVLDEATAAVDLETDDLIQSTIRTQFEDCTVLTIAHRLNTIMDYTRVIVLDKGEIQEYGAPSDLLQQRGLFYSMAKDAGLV

| Compound | Activity |
| --- | --- |
| CC[C@]1(O)C[C@@H]2CN(CCc3c([nH]c4ccccc34)[C@@](C(=O)OC)(c3cc4c(cc3OC)N(C)[C@H]3[C@@](O)(C(=O)OC)[C@H](OC(C)=O)[C@]5(CC)C=CCN6CC[C@]43[C@@H]65)C2)C1 [VINBLASTINE] | substrate [] |
| O.O=P(O)(O)C(O)(Cn1ccnc1)P(=O)(O)O [ZOLEDRONIC ACID] | substrate [] |
